# Data taken from patent US20250136581A1, “SUBSTITUTED TRIAZOLE DERIVATIVE, PREPARATION METHOD THEREFOR, PHARMACEUTICAL COMPOSITION THEREOF, AND USE THEREOF” (SHANGHAI SIMR BIOTECHNOLOGY CO., LTD., priority 2021, published 2025).
# pKi: −log10 of the molar value.
# Experiments:
# [1] = molecular target: human α2β3γ2 receptors (Homo sapiens (Human), UniProt P18507+P47869); test: 3H-flunitrazepam competition binding, human α2β3γ2 GABAA receptor; settings: HEK293 cell membranes, 1 nM 3H-flunitrazepam; read-out: Ki α2
# Summary of the method: (§1)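 Radioligand displacement of 1 nM 3H-flunitrazepam from membranes of HEK293 lines stably expressing the human subtypes, 1 h at room temperature, compound in 8-point 4-fold series. Bound label on GF/C filters counted by scintillation; Ki derived from fitted IC50, with flumazenil as low control.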
# [2] = molecular target: human α3β3γ2 receptors (Homo sapiens (Human), UniProt P18507+P34903); test: 3H-flunitrazepam competition binding, human α3β3γ2 GABAA receptor; settings: HEK293 cell membranes, 1 nM 3H-flunitrazepam; read-out: Ki α3
# Summary of the method: as §1
# [3] = molecular target: α5-GABAA receptor (α5, β3, γ2 subunits) (Homo sapiens (Human), UniProt P18507+P31644); test: Whole cell patch clamp, inverse agonist efficacy in HEK293 cells expressing α5-GABAA receptor; type: cell-based; settings: HEK293, drug 100 nM, GABA 0.05 μM, −60 mV; read-out: Compound inverse agonist efficacy %
# Summary of the method: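 Compounds screened at 100 nM against current induced by 0.05 μM GABA in monoclonal HEK293 cells stably expressing α5β3γ2 GABAA receptors. Recording by whole-cell voltage clamp (−60 mV, pH 7.4 bath, CsCl pipette); efficacy calculated from leak-corrected currents before and after drug.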
smiles,measurement,setting,value
"Cc1nnn(-c2ccc(C(F)F)cc2)c1COc1ccc(N2CC(=O)NC(C)C2)nn1 (stereo not drawn) [Example 6, 4-(6-((1-(4-(Difluoromethyl)phenyl)-4-methyl-1H-1,2,3-triazol-5-yl)methoxy)pyridazin-3-yl)-6-methylpiperazin-2-one]",pKi,[1],7.80
same,pKi,[2],7.85
same,inhibition at 0.1 µM,[3],42.5%
